In brackets after ≈: the same amount, converted by molar mass. Read-outs that look alike come from different tables or passages of the source.
Key:
[1] = tested on: mice; test: Acute toxicity in mice (minimal lethal dose); format: in vivo; details: IV tail vein, observed 24 hours, lowest dose lethal for at least one mouse
Experimental: The acute toxicity of 44 was compared to that of 45 in mice. Ascending doses of each compound were administered to mice (n=3) IV through the tail vein. […] Acute toxicity was reported as the minimal lethal dose, or MLD, defined as the lowest dose of a compound that is lethal for at least one mouse.

[2] = tested on: Klebsiella pneumonia (ATCC 43816); test: MIC, broth microdilution; details: Klebsiella pneumoniae
[3] = tested on: 143 clinical isolates of various species of Enterobacteriacea; test: MIC against clinical isolates of Enterobacteriacea; format: cell-based; details: for MIC50: MIC of 50% population; for MIC50 / MIC90: 143 clinical isolates of Enterobacteriacea; for MIC90: MIC of 90% population; for share of strains of Enterobacteriacae in which the compound was more potent than the other (44 vs. 45): by ratio of MICs
Experimental: (§1) To compare microbiological activity of the test compounds, minimum inhibitory concentrations (MIC.s) were determined. Antibiotic MICs were obtained using the broth microdilution method according to Clinical and Laboratory Standards Institute (CLSI) approved guidelines (Methods for dilution antimicrobial susceptibility tests for bacteria that grow aerobically; approved standard—7th ed. CLSI document M7-A7. Clinical and Laboratory Standards Institute, Wayne, Pa., incorporated herein by reference in its entirety). Antibiotics were dissolved as specified by CLSI (Performance standards for antimicrobial susceptibility testing; Seventeenth informational supplement. CLSI document M100-S17. Clinical and Laboratory Standards Institute, Wayne, Pa., incorporated herein by reference in its entirety), and were serially diluted 2-fold in cation adjusted Mueller Hinton Broth (CaMHB) at 2× concentration. Bacterial inoculums were prepared in CaMHB by suspension of a colony from an agar plate that was prepared the previous day to obtain a final concentration of 5×10^5CFU/ml. The plates were incubated for 18 hours at 35° C. […] MIC.s were determined by reading the turbidity of plate wells using a SpectraMax Plus384 plate reader (Molecular Devices, Sunnyvale, Calif., USA) at 600 nm and were confirmed by visual inspection.
Table 9 summarizes results of testing 44 and 45 against 143 clinical isolates of various species of Enterobacteriacea.

[4] = tested on: ECM6007 aac(6′) + aph(2″); test: microbe, parasite or virus in culture; format: cell-based, Escherichia coli; details: Escherichia coli
Summary of the method: (§2)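 CLSI broth microdilution in CaMHB; 2-fold serial dilutions; 5×10^5 CFU/ml final inoculum; 18 h, 35° C; OD600 turbidity plus visual check.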

[5] = tested on: EC1001 acc(6′)-Ib; test: microbe, parasite or virus in culture; format: cell-based, Escherichia coli; details: Escherichia coli
Summary of the method: as §2

[6] = tested on: Pseudomonas aeruginosa PAM2900 PAM2859/pXY; test: MIC, representative strains; format: cell-based; details: read-out: MIC Pseudomonas aeruginosa PAM2900 PAM2859/pXY
Experimental: as §1

[7] = tested on: Pseudomonas aeruginosa PAM2859 multiple pumps deleted; test: MIC, representative strains; format: cell-based; details: read-out: MIC Pseudomonas aeruginosa PAM2859 multiple pumps deleted
Experimental: as §1

[8] = tested on: Citrobacter freundii CFM1000 ATCC 8090; test: MIC, representative strains; format: cell-based; details: ATCC8090, read-out: MIC Citrobacter freundii CFM1000 ATCC 8090
Experimental: as §1

[9] = tested on: Staphylococcus aureus SAM1001 ATCC 25923; test: MIC, representative strains; format: cell-based; details: ATCC25923, read-out: MIC Staphylococcus aureus SAM1001 ATCC 25923
Experimental: as §1

[10] = tested on: Enterobacter aerogenes EAM1000 ATCC 13048; test: MIC, representative strains; format: cell-based; details: Klebsiella aerogenes, ATCC13048, read-out: MIC Enterobacter aerogenes EAM1000 ATCC 13048
Experimental: as §1

[11] = tested on: Enterobacter cloacae ECLM1000 ATCC 13047; test: MIC, representative strains; format: cell-based; details: ATCC13047, read-out: MIC Enterobacter cloacae ECLM1000 ATCC 13047
Experimental: as §1

[12] = tested on: Pseudomonas aeruginosa pa1061 aac(6′) (no efflux); test: MIC, strains expressing aminoglycoside modifying enzymes; format: cell-based; details: read-out: MIC Pseudomonas aeruginosa pa1061 aac(6′) (no efflux)
Experimental: as §1

[13] = tested on: Escherichia coli ECM6005 aac(3)-II, aph(3′)-II; test: as above; format: cell-based; details: read-out: MIC Escherichia coli ECM6005 aac(3)-II, aph(3′)-II
Experimental: as §1

[14] = tested on: Acinetobacter spp. AB1051 aph(3′)VI; test: as above; format: cell-based; details: read-out: MIC Acinetobacter spp. AB1051 aph(3′)VI
Experimental: as §1

[15] = tested on: Providencia stuartii PSM1000 aac(2′); test: as above; format: cell-based; details: read-out: MIC Providencia stuartii PSM1000 aac(2′)
Experimental: as §1

[16] = tested on: Escherichia coli ECM6012 armA; test: as above; format: cell-based; details: ECM6012ARMA, read-out: MIC Escherichia coli ECM6012 armA
Experimental: as §1

[17] = tested on: Pseudomonas aeruginosa pa1060 ant(2″); test: as above; format: cell-based; details: read-out: MIC Pseudomonas aeruginosa pa1060 ant(2″)
Experimental: as §1

[18] = tested on: Escherichia coli ECM6008 aac(3)-I, ant(3″); test: as above; format: cell-based; details: read-out: MIC Escherichia coli ECM6008 aac(3)-I, ant(3″)
Experimental: as §1

[19] = tested on: Escherichia coli ECM6004 aac(2′); test: as above; format: cell-based; details: read-out: MIC Escherichia coli ECM6004 aac(2′)
Experimental: as §1

[20] = tested on: Pseudomonas aeruginosa pa1062 aac(3)-I; test: as above; format: cell-based; details: read-out: MIC Pseudomonas aeruginosa pa1062 aac(3)-I
Experimental: as §1

[21] = tested on: Acinetobacter baumannii ACM1008 aac(3)-Ia; test: as above; format: cell-based; details: read-out: MIC Acinetobacter baumannii ACM1008 aac(3)-Ia
Experimental: as §1

[22] = tested on: Escherichia coli (ATCC 25922); test: MIC, broth microdilution; details: Escherichia coli
[23] = ATCC43816, read-out: Compound MIC on Bacterial Strains: K. pneumonia ATCC 43816
[24] = ATCC43816, read-out: MIC Klebsiella pneumoniae KPM1001 ATCC 43816
[25] = 18 h, Table 4, read-out: Compound MIC on Bacterial Strains: Escherichia coli ECM6007 aac(6′) + aph(2″)
[26] = Table 8, read-out: MIC Escherichia coli ECM6007 aac(6′) + aph(2″)
[27] = Table 4, read-out: Compound MIC on Bacterial Strains: Escherichia coli EC1001 acc(6′)-Ib
[28] = Table 8, read-out: MIC Escherichia coli EC1001 aac(6′)-Ib
[29] = ATCC25922, read-out: Compound MIC on Bacterial Strains: E. coli ATCC 25922
[30] = ATCC25922, read-out: Compound MIC on Bacterial Strains: ECM6000 ATCC 25922
[31] = ATCC25922, read-out: Compound MIC on Bacterial Strains: Escherichia coli ECM6000 ATCC 25922
[32] = ATCC25922, read-out: MIC Escherichia coli ECM6025 ATCC 25922

SMILES	minimal lethal dose (MLD) [1] [mg/kg]	MIC [2, 23] [µg/mL]	MIC [2, 24] [µg/mL]	MIC50 [3] [µg/mL]	MIC90 [3] [µg/mL]	share of strains of Enterobacteriacae in which the compound was more potent than the other (44 vs. 45) [3]	MIC [4, 25] [µg/mL]	MIC [4, 26] [µg/mL]	MIC [5, 27] [µg/mL]	MIC [5, 28] [µg/mL]	MIC [6] [µg/mL]	MIC [7] [µg/mL]	MIC [8] [µg/mL]	MIC [9] [µg/mL]	MIC [10] [µg/mL]	MIC [11] [µg/mL]	MIC [12] [µg/mL]	MIC [13] [µg/mL]	MIC [14] [µg/mL]	MIC [15] [µg/mL]	further results
CN[C@@H]1C(O)[C@@H](OC2C(O)C(O[C@H]3O[C@H](CNC[C@@H](O)CO)CCC3N)[C@@H](N)C[C@H]2NC(=O)[C@@H](O)CN)OCC1(C)O (stereo partly drawn) [Compound 44]	> 125	< 1	< 1	0.5	2	~75%	< 1	< 1	< 1	< 1	> 8	< 1	< 1	< 1	< 1	< 1	< 1	< 1	1 to 8 (≈ 1.64 to 13.1 µM)	> 8	MIC [16]: > 8 µg/mL; MIC [17]: < 1 µg/mL; MIC [18]: < 1 µg/mL; MIC [19]: < 1 µg/mL; MIC [20]: > 8 µg/mL; MIC [21]: 1 to 8 µg/mL (≈ 1.64 to 13.1 µM); MIC [22, 29]: < 1 µg/mL; MIC [22, 30]: < 1 µg/mL; MIC [22, 31]: < 1 µg/mL; MIC [22, 32]: < 1 µg/mL
CN[C@@H]1[C@@H](O)[C@@H](O[C@@H]2[C@@H](O)[C@H](O[C@H]3O[C@H](CNC[C@H](O)CO)CC[C@H]3N)[C@@H](N)C[C@H]2NC(=O)[C@@H](O)CN)OC[C@]1(C)O [Compound 45, (S)-3-amino-N-((1R,2S,3S,4R,5S)-5-amino-4-((2R,3R,6S)-3-amino-6-(((S)-2,3-dihydroxypropylamino)methyl)tetrahydro-2H-pyran-2-yloxy)-2-((2R,3R,4R,5R)-3,5-dihydroxy-5-methyl-4-(methylamino)tetrahydro-2H-pyran-2-yloxy)-3-hydroxycyclohexyl)-2-hydroxypropanamide]	100	< 1	< 1	1	2	less than 2%	< 1	< 1	1 to 8 (≈ 1.64 to 13.1 µM)	1 to 8 (≈ 1.64 to 13.1 µM)	> 8	< 1	< 1	< 1	1 to 8 (≈ 1.64 to 13.1 µM)	< 1	< 1	< 1	1 to 8 (≈ 1.64 to 13.1 µM)	> 8	MIC [16]: > 8 µg/mL; MIC [17]: 1 to 8 µg/mL (≈ 1.64 to 13.1 µM); MIC [18]: 1 to 8 µg/mL (≈ 1.64 to 13.1 µM); MIC [19]: < 1 µg/mL; MIC [20]: > 8 µg/mL; MIC [21]: 1 to 8 µg/mL (≈ 1.64 to 13.1 µM); MIC [22, 29]: < 1 µg/mL; MIC [22, 30]: < 1 µg/mL; MIC [22, 31]: < 1 µg/mL; MIC [22, 32]: < 1 µg/mL
